Values quoted from earlier work as cited in US11311529B2, “Topical formulations of 5-α-reductase inhibitors and uses thereof” (Varsona Therapeutics, Inc., priority 2018, dated 2022).

Legend:
men = conditions: oral, over a period of 12 to 24 weeks, compared with oral finasteride
DHT = conditions: 5 mg daily dose, oral, people suffering from BPH

SMILES | hair count results (men) | DHT blocked (DHT)
C[C@]12C=CC(=O)N[C@@H]1CC[C@@H]1[C@@H]2CC[C@]2(C)[C@@H](C(=O)Nc3cc(C(F)(F)F)ccc3C(F)(F)F)CC[C@@H]12 [oral dutasteride, (5α,17β)-N-[2,5 bis(trifluoromethyl)phenyl]-3-oxo-4-azaandrost-1-ene-17-carboxamide] | better hair count results than oral finasteride | 98.4%+/−1.2
CC(C)(C)NC(=O)[C@H]1CC[C@H]2[C@@H]3CC[C@H]4NC(=O)C=C[C@]4(C)[C@H]3CC[C@]12C [oral finasteride, finasteride] |  | 70.8+/−18.3%
